{"source": "paper PMC5218480", "about": "(PLoS ONE, 2017)", "test_system": "MV-4-11 cells", "test": "Gene expression microarray analysis (Affymetrix PrimeView) and GSEA", "type": "cell-based, human", "design": "RFU PODN (11730768_x_at) / Fold change /veh PODN (11730768_x_at) / RFU LINC00158 (11744669_a_at) / Fold change /veh LINC00158 (11744669_a_at) / RFU DUSP10 (11751237_a_at) / Fold change /veh DUSP10 (11751237_a_at) / RFU ID3 (11757404_x_at) / Fold change /veh ID3 (11757404_x_at) / RFU PLEKHG5 (11737974_s_at) / Fold change /veh PLEKHG5 (11737974_s_at) / RFU LRRC4B (11730491_at) / Fold change /veh LRRC4B (11730491_at) / RFU GIMAP4 (11747438_a_at) / Fold change /veh GIMAP4 (11747438_a_at) / RFU KRT8 (11758183_x_at) / Fold change /veh KRT8 (11758183_x_at) / RFU CNN1 (11734310_a_at) / Fold change /veh CNN1 (11734310_a_at) / RFU VPS37D (11726825_at) / Fold change /veh VPS37D (11726825_at) / RFU C10orf10 (11716522_x_at) / Fold change /veh C10orf10 (11716522_x_at) / RFU KIR2DL2 /// KIR2DL4 /// KIR2DL5A /// KIR2DL5B /// KIR2DS1 /// KIR2DS2 /// KIR2DS3 /// KIR2DS4 /// KIR3DL3 /// KIR3DL3 /// KIR3DS1 (11738374_at) / Fold change /veh KIR2DL2 /// KIR2DL4 /// KIR2DL5A /// KIR2DL5B /// KIR2DS1 /// KIR2DS2 /// KIR2DS3 /// KIR2DS4 /// KIR3DL3 /// KIR3DL3 /// KIR3DS1 (11738374_at) / RFU C1QL1 (11718748_at) / Fold change /veh C1QL1 (11718748_at) / RFU TMPRSS4 (11747572_a_at) / Fold change /veh TMPRSS4 (11747572_a_at) / RFU HAMP (11756126_x_at) / Fold change /veh HAMP (11756126_x_at) / RFU RNFT2 (11725882_a_at) / Fold change /veh RNFT2 (11725882_a_at) / RFU NR4A2 (11747474_a_at) / Fold change /veh NR4A2 (11747474_a_at) / RFU ABCC12 (11746883_a_at) / Fold change /veh ABCC12 (11746883_a_at) / RFU TMEM136 (11760407_x_at) / Fold change /veh TMEM136 (11760407_x_at) / RFU CLDN22 /// WWC2 (11732394_at) / Fold change /veh CLDN22 /// WWC2 (11732394_at) / RFU HLA-DPB1 (11760878_x_at) / Fold change /veh HLA-DPB1 (11760878_x_at) / RFU SPINT1 (11716480_a_at) / Fold change /veh SPINT1 (11716480_a_at) / RFU GAP43 (11754022_s_at) / Fold change /veh GAP43 (11754022_s_at) / RFU A4GNT (11735810_at) / Fold change /veh A4GNT (11735810_at) / RFU PRB3 (11715151_x_at) / Fold change /veh PRB3 (11715151_x_at) / RFU TUBB4B (11761932_at) / Fold change /veh TUBB4B (11761932_at) / RFU CAPN14 (11732068_a_at) / Fold change /veh CAPN14 (11732068_a_at) / RFU TMCC2 (11721928_a_at) / Fold change /veh TMCC2 (11721928_a_at) / RFU IRGQ (11745062_a_at) / Fold change /veh IRGQ (11745062_a_at) / RFU FAM174B (11720279_a_at) / Fold change /veh FAM174B (11720279_a_at) / RFU TMPRSS4 (11748680_a_at) / Fold change /veh TMPRSS4 (11748680_a_at) / RFU FAM212B (11763350_a_at) / Fold change /veh FAM212B (11763350_a_at) / RFU PLEKHG5 (11743358_a_at) / Fold change /veh PLEKHG5 (11743358_a_at) / RFU ZSCAN30 (11745921_a_at) / Fold change /veh ZSCAN30 (11745921_a_at) / RFU CMKLR1 (11741424_a_at) / Fold change /veh CMKLR1 (11741424_a_at) / RFU LOC101060620 /// MAPK8IP1 (11723275_at) / Fold change /veh LOC101060620 /// MAPK8IP1 (11723275_at) / RFU SPTSSB (11747773_x_at) / Fold change /veh SPTSSB (11747773_x_at) / RFU PRSS12 (11739890_at) / Fold change /veh PRSS12 (11739890_at) / RFU BIN1 (11741810_x_at) / Fold change /veh BIN1 (11741810_x_at) / RFU WNT11 (11732464_a_at) / Fold change /veh WNT11 (11732464_a_at) / RFU C10orf10 (11716521_a_at) / Fold change /veh C10orf10 (11716521_a_at) / RFU C5orf56 (11738089_at) / Fold change /veh C5orf56 (11738089_at) / RFU CYB561 (11721691_x_at) / Fold change /veh CYB561 (11721691_x_at) / RFU ANKRD19P (11752326_a_at) / Fold change /veh ANKRD19P (11752326_a_at) / RFU OR2T12 /// OR2T33 /// OR2T8 (11738714_s_at) / Fold change /veh OR2T12 /// OR2T33 /// OR2T8 (11738714_s_at) / RFU VCAN (11748164_a_at) / Fold change /veh VCAN (11748164_a_at) / RFU JSRP1 (11732532_at) / Fold change /veh JSRP1 (11732532_at) / RFU KRTAP10-11 (11738290_x_at) / Fold change /veh KRTAP10-11 (11738290_x_at) / RFU MYO3A (11730013_a_at) / Fold change /veh MYO3A (11730013_a_at) / RFU EBF3 (11725865_a_at) / Fold change /veh EBF3 (11725865_a_at) / RFU CAMK2N1 (11719241_x_at) / Fold change /veh CAMK2N1 (11719241_x_at) / RFU C5orf56 (11738088_a_at) / Fold change /veh C5orf56 (11738088_a_at) / RFU OLFML3 (11715873_a_at) / Fold change /veh OLFML3 (11715873_a_at) / RFU LOC100653217 /// NTM (11731650_a_at) / Fold change /veh LOC100653217 /// NTM (11731650_a_at) / RFU MAPK11 (11762145_a_at) / Fold change /veh MAPK11 (11762145_a_at) / RFU FIZ1 (11724087_x_at) / Fold change /veh FIZ1 (11724087_x_at) / RFU OASL (11726364_x_at) / Fold change /veh OASL (11726364_x_at) / RFU SOX15 (11748057_x_at) / Fold change /veh SOX15 (11748057_x_at) / RFU CD79A (11719716_a_at) / Fold change /veh CD79A (11719716_a_at) / RFU HIST1H1D (11736915_at) / Fold change /veh HIST1H1D (11736915_at) / RFU CASKIN2 (11723855_a_at) / Fold change /veh CASKIN2 (11723855_a_at) / RFU LOC730098 (11760151_x_at) / Fold change /veh LOC730098 (11760151_x_at) / RFU OR4N2 (11742367_at) / Fold change /veh OR4N2 (11742367_at) / RFU PRRT2 (11749266_a_at) / Fold change /veh PRRT2 (11749266_a_at) / RFU SNX32 (11753110_a_at) / Fold change /veh SNX32 (11753110_a_at) / RFU CDHR5 (11726645_a_at) / Fold change /veh CDHR5 (11726645_a_at) / RFU RCAN1 (11760418_a_at) / Fold change /veh RCAN1 (11760418_a_at) / RFU FAM167A (11723789_a_at) / Fold change /veh FAM167A (11723789_a_at) / RFU FAM26E (11764081_at) / Fold change /veh FAM26E (11764081_at) / RFU ISYNA1 (11749810_s_at) / Fold change /veh ISYNA1 (11749810_s_at) / RFU ACY1 (11761880_at) / Fold change /veh ACY1 (11761880_at) / RFU 11764098_at / Fold change /veh 11764098_at / RFU SAMD14 (11745864_x_at) / Fold change /veh SAMD14 (11745864_x_at) / RFU NPB (11741838_a_at) / Fold change /veh NPB (11741838_a_at) / RFU TMPRSS6 (11731388_a_at) / Fold change /veh TMPRSS6 (11731388_a_at) / RFU KRTAP10-2 (11738614_at) / Fold change /veh KRTAP10-2 (11738614_at) / RFU ARHGAP8 /// PRR5-ARHGAP8 (11727945_x_at) / Fold change /veh ARHGAP8 /// PRR5-ARHGAP8 (11727945_x_at) / RFU KRTAP5-7 /// NADSYN1 (11734609_at) / Fold change /veh KRTAP5-7 /// NADSYN1 (11734609_at) / RFU RASL12 (11751679_a_at) / Fold change /veh RASL12 (11751679_a_at) / RFU CDKN2B (11736163_a_at) / Fold change /veh CDKN2B (11736163_a_at) / RFU PRF1 (11729649_at) / Fold change /veh PRF1 (11729649_at) / RFU, ZNF638 /// ZNF638-IT1 / Fold change vs veh, ZNF638 /// ZNF638-IT1 / RFU, PANK3 / Fold change vs veh, PANK3 / RFU, SH3YL1 / Fold change vs veh, SH3YL1 / RFU, ZEB2 / Fold change vs veh, ZEB2 / RFU, NRIP1 / Fold change vs veh, NRIP1 / RFU, PTTG1IP / Fold change vs veh, PTTG1IP / RFU, CAPN2 / Fold change vs veh, CAPN2 / RFU, MED14 / Fold change vs veh, MED14 / RFU, SNORA58 / Fold change vs veh, SNORA58 / RFU, C1orf63 / Fold change vs veh, C1orf63 / RFU, LRRFIP1 / Fold change vs veh, LRRFIP1 / RFU, NDUFAF7 / Fold change vs veh, NDUFAF7 / RFU, SLC12A2 / Fold change vs veh, SLC12A2 / RFU, IBTK / Fold change vs veh, IBTK / RFU, ESF1 / Fold change vs veh, ESF1 / Fold change vs veh, TMEM50B / RFU, TAOK1 / Fold change vs veh, TAOK1 / RFU, ACBD3 / Fold change vs veh, ACBD3 / RFU, TMA16 / Fold change vs veh, TMA16 / RFU, RWDD3 / Fold change vs veh, RWDD3 / RFU, BCAT1 / Fold change vs veh, BCAT1 / RFU, EDEM3 / Fold change vs veh, EDEM3 / RFU, TMEM33 / Fold change vs veh, TMEM33 / RFU, WDR75 / Fold change vs veh, WDR75 / RFU, AHCTF1 / Fold change vs veh, AHCTF1 / RFU, TFRC / Fold change vs veh, TFRC / RFU, ZDHHC17 / Fold change vs veh, ZDHHC17 / RFU, NOM1 / Fold change vs veh, NOM1 / RFU, ARL8B / Fold change vs veh, ARL8B / RFU, ZBTB11 / Fold change vs veh, ZBTB11 / RFU, TAMM41 / Fold change vs veh, TAMM41 / RFU, KIAA1704 /// LOC100996395 / Fold change vs veh, KIAA1704 /// LOC100996395 / RFU, ING1 / Fold change vs veh, ING1 / RFU, TRMT61B / Fold change vs veh, TRMT61B / RFU, FUBP3 / Fold change vs veh, FUBP3 / RFU, TP53 / Fold change vs veh, TP53 / RFU, TNKS2 / Fold change vs veh, TNKS2 / RFU, ZFP14 / Fold change vs veh, ZFP14 / RFU, ACTR2 / Fold change vs veh, ACTR2 / RFU, PPP3R1 / Fold change vs veh, PPP3R1 / RFU, PIK3R1 / Fold change vs veh, PIK3R1 / RFU, HNRNPA1 / Fold change vs veh, HNRNPA1 / RFU, RNF170 / Fold change vs veh, RNF170 / RFU, ZNF28 / Fold change vs veh, ZNF28 / RFU, RNGTT / Fold change vs veh, RNGTT / RFU, OGT / Fold change vs veh, OGT / RFU, BRD1 / Fold change vs veh, BRD1 / RFU, MARS / Fold change vs veh, MARS / RFU, ZNF655 / Fold change vs veh, ZNF655 / RFU, FAHD1 / Fold change vs veh, FAHD1 / RFU, BDP1 / Fold change vs veh, BDP1 / RFU, LRRCC1 / Fold change vs veh, LRRCC1 / RFU, ARID1A / Fold change vs veh, ARID1A / RFU, ZNF146 / Fold change vs veh, ZNF146 / RFU, ZNF330 / Fold change vs veh, ZNF330 / RFU, GPN3 / Fold change vs veh, GPN3 / RFU, C9orf123 / Fold change vs veh, C9orf123 / RFU, N4BP2L2 / Fold change vs veh, N4BP2L2 / RFU, ARFIP1 / Fold change vs veh, ARFIP1 / RFU, FAM179B / Fold change vs veh, FAM179B / RFU, BCL10 / Fold change vs veh, BCL10 / RFU, UHRF1BP1L / Fold change vs veh, UHRF1BP1L / RFU, BET1 / Fold change vs veh, BET1 / RFU, CNOT2 / Fold change vs veh, CNOT2 / RFU, ZNF268 / Fold change vs veh, ZNF268 / Fold change vs veh, ZNF507 / RFU, DGCR2 / Fold change vs veh, DGCR2 / RFU, WDSUB1 / Fold change vs veh, WDSUB1 / Fold change vs veh, HSP90B1 /// MIR3652 / RFU, ADSS / Fold change vs veh, ADSS / RFU, GK / Fold change vs veh, GK / RFU, ZNF148 / Fold change vs veh, ZNF148 / RFU, TAF9 / Fold change vs veh, TAF9 / RFU, SLC1A5 / Fold change vs veh, SLC1A5 / RFU, SLMO2 / Fold change vs veh, SLMO2 / RFU, ABCC4 / Fold change vs veh, ABCC4 / RFU, LOC101060439 /// RAP1B / Fold change vs veh, LOC101060439 /// RAP1B / RFU, RFX7 / Fold change vs veh, RFX7 / RFU, GTPBP10 / Fold change vs veh, GTPBP10 / RFU, CNEP1R1 / Fold change vs veh, CNEP1R1 / RFU, BIVM-ERCC5 /// ERCC5 / Fold change vs veh, BIVM-ERCC5 /// ERCC5 / RFU, ILF3 / Fold change vs veh, ILF3 / RFU 11762660_at / Fold change /veh 11762660_at / RFU VCAN (11757783_s_at) / Fold change /veh VCAN (11757783_s_at) / RFU DDX43 (11728927_at) / Fold change /veh DDX43 (11728927_at) / RFU KRT8 (11758188_x_at) / Fold change /veh KRT8 (11758188_x_at) / RFU NKD1 (11759106_at) / Fold change /veh NKD1 (11759106_at) / RFU SRD5A1 (11742802_a_at) / Fold change /veh SRD5A1 (11742802_a_at) / RFU TPSAB1 /// TPSB2 (11721975_s_at) / Fold change /veh TPSAB1 /// TPSB2 (11721975_s_at) / RFU GSTM3 (11746129_a_at) / Fold change /veh GSTM3 (11746129_a_at) / RFU IL23R (11737362_x_at) / Fold change /veh IL23R (11737362_x_at) / RFU TMEM51 (11727254_a_at) / Fold change /veh TMEM51 (11727254_a_at) / RFU PIWIL2 (11732686_x_at) / Fold change /veh PIWIL2 (11732686_x_at) / RFU ORM1 (11744905_x_at) / Fold change /veh ORM1 (11744905_x_at) / RFU CCDC152 (11743942_at) / Fold change /veh CCDC152 (11743942_at) / RFU ECM1 (11717891_a_at) / Fold change /veh ECM1 (11717891_a_at) / RFU IL23R (11748794_a_at) / Fold change /veh IL23R (11748794_a_at) / RFU TNFAIP8L3 (11732012_x_at) / Fold change /veh TNFAIP8L3 (11732012_x_at) / RFU MBOAT4 (11741988_at) / Fold change /veh MBOAT4 (11741988_at) / RFU 11764193_at / Fold change /veh 11764193_at / RFU TMEM53 (11763286_at) / Fold change /veh TMEM53 (11763286_at) / RFU MAGEB2 (11727129_at) / Fold change /veh MAGEB2 (11727129_at) / RFU TMEM200A (11744735_a_at) / Fold change /veh TMEM200A (11744735_a_at) / RFU CCDC152 (11751479_a_at) / Fold change /veh CCDC152 (11751479_a_at) / RFU FAM211A (11726209_a_at) / Fold change /veh FAM211A (11726209_a_at) / RFU RGS16 (11746705_a_at) / Fold change /veh RGS16 (11746705_a_at) / RFU VCAN (11755009_s_at) / Fold change /veh VCAN (11755009_s_at) / RFU RHOB (11743442_s_at) / Fold change /veh RHOB (11743442_s_at) / RFU RGS16 (11720943_a_at) / Fold change /veh RGS16 (11720943_a_at) / RFU RGS16 (11720944_at) / Fold change /veh RGS16 (11720944_at) / RFU, VPS4B / Fold change vs veh, VPS4B / RFU, CREB1 / Fold change vs veh, CREB1 / RFU, DNAJC13 / Fold change vs veh, DNAJC13 / RFU, GNAQ / Fold change vs veh, GNAQ / RFU, CDK5R1 / Fold change vs veh, CDK5R1 / RFU, ZRANB3 / Fold change vs veh, ZRANB3 / RFU, CUL4A / Fold change vs veh, CUL4A / RFU, CCNY / Fold change vs veh, CCNY / RFU, UFL1 / Fold change vs veh, UFL1 / RFU, COG3 / Fold change vs veh, COG3 / RFU, DIAPH2 / Fold change vs veh, DIAPH2 / RFU, SKA2 / Fold change vs veh, SKA2 / RFU, AFF3 / Fold change vs veh, AFF3 / RFU, LMF1 / Fold change vs veh, LMF1 / RFU, IPO11 / Fold change vs veh, IPO11 / RFU, DFFB / Fold change vs veh, DFFB / RFU, FOXP1 / Fold change vs veh, FOXP1 / RFU, CARD8 / Fold change vs veh, CARD8 / RFU, STRN3 / Fold change vs veh, STRN3 / RFU, ADK / Fold change vs veh, ADK / RFU, RASSF2 / Fold change vs veh, RASSF2 / RFU, WIPF1 / Fold change vs veh, WIPF1 / RFU, LARP1B / Fold change vs veh, LARP1B / RFU, RASA1 / Fold change vs veh, RASA1 / RFU, RB1 / Fold change vs veh, RB1 / RFU, PPFIA1 / Fold change vs veh, PPFIA1 / RFU, MAT2A / Fold change vs veh, MAT2A / RFU, CCT5 / Fold change vs veh, CCT5 / RFU, WDR92 / Fold change vs veh, WDR92 / RFU, CUX1 / Fold change vs veh, CUX1 / RFU, TTC7A / Fold change vs veh, TTC7A / RFU, TMEM135 / Fold change vs veh, TMEM135 / RFU, DEPTOR / Fold change vs veh, DEPTOR / RFU, CPM / Fold change vs veh, CPM / RFU, DNAJB6 / Fold change vs veh, DNAJB6 / RFU, CACNA2D3 / Fold change vs veh, CACNA2D3 / RFU, DTX4 / Fold change vs veh, DTX4 / RFU, TFCP2 / Fold change vs veh, TFCP2 / RFU, GMCL1 /// GMCL1P1 / Fold change vs veh, GMCL1 /// GMCL1P1 / RFU, AEBP2 / Fold change vs veh, AEBP2 / RFU, SNHG1 /// SNORD22 /// SNORD25 /// SNORD26 /// SNORD27 /// SNORD28 /// SNORD29 /// SNORD31 / Fold change vs veh, SNHG1 /// SNORD22 /// SNORD25 /// SNORD26 /// SNORD27 /// SNORD28 /// SNORD29 /// SNORD31 / Fold change (Aza/veh), C12orf56 (ProbeSet 11735607_a_at) / Fold change (ACY-1035/veh), C12orf56 (ProbeSet 11735607_a_at) / Fold change (Aza/veh), FGFR1OP (ProbeSet 11751329_s_at) / Fold change (ACY-1035/veh), FGFR1OP (ProbeSet 11751329_s_at) / Fold change (Aza/veh), VPS36 (ProbeSet 11739960_a_at) / Fold change (ACY-1035/veh), VPS36 (ProbeSet 11739960_a_at) / RFU SYPL1 (11715823_x_at) / Fold change /veh SYPL1 (11715823_x_at) / RFU IGFBP7 (11715501_s_at) / Fold change /veh IGFBP7 (11715501_s_at) / RFU REEP3 (11722064_at) / Fold change /veh REEP3 (11722064_at) / RFU IGLL1 (11728026_x_at) / Fold change /veh IGLL1 (11728026_x_at): dose or concentration left out as unconfirmed", "conditions": "ProbeSet 11753234_a_at; LIST B", "data": [{"smiles": "Nc1ccc(-c2cccs2)cc1NC(=O)c1ccc2c(c1)cc(C1CC1)n2CCN1CCOCC1", "note": "[ACY-1035]", "values": [{"measurement": "Fold change vs veh, TAMM41", "value": 0.90}]}]}
